Laboratory results published in patent US20210180023A1, “CARDIAC REPAIR BY REPROGRAMMING OF ADULT CARDIAC FIBROBLASTS INTO CARDIOMYOCYTES” (The Board of Regents of the University of Texas System, priority 2017, published 2021).

How the values were obtained:
fibroblasts = details: added to reprogramming cocktail (GMT); cited from earlier work
[1] = system: 5F-reprogrammed adult αMHC-GFP transgenic TTFs; assay: Immunocytochemistry and flow cytometry of αMHC-GFP and cTnT in 5F-reprogrammed TTFs treated with anti-inflammatory drugs; type: cell-based, mouse; details: drug added to 5F, 7 days
Method: (§1) Retroviruses production, cellular reprogramming and treatment. For retroviruses production, Platinum E cells were seeded into culture dishes (1×10^5 cells/cm2) one day before transfection in DMEM supplemented with 10% FBS and 1% penicillin/streptomycin. Cells reached ˜80% confluency on the day of transfection. DNA plasmids were transfected into Platinum E cells using FuGENE 6 transfection reagent. Twenty-four hours after transfection, wild type or αMHC-GFP tail-tip fibroblasts were seeded into culture dishes or plates that were precoated with SureCoat (Cellutron) for one hour at a density of 6×10^4/cm^2. Forty-eight hours after transfection, polybrene was added to viral medium that was filtered through a 0.45-μm filter at a concentration of […]. The mixture replaced the growth medium in the cell culture plate with tail-tip fibroblasts. The viral infection was serially repeated twice. […]
Flow Cytometry. […] Cells were washed with Perm/Wash buffer, and then analyzed using FACS Caliber (BD Sciences) and FlowJo software. […]

5F-reprogrammed TTFs = assay: q-PCR of inflammatory and cardiac markers in 5F-reprogrammed TTFs treated with anti-inflammatory drugs; type: cell-based, mouse; details: drug 10 μM added to 5F, 7 days
Method: as §1, with “twice. Twenty-four hours after the second infection, the viral medium was replaced with induction medium, composed of DMEM/199 (4:1), 10% conditioned medium obtained from neonatal rat cardiomyocyte culture, 10% FBS, 5% horse serum, 1% penicillin/streptomycin, 1% nonessential amino acids, 1% essential amino acids, 1% B-27, 1% insulin-selenium-transferrin, 1% vitamin mixture, and 1% sodium pyruvate (Invitrogen).” for “twice.”
Quantitative mRNA measurement. […]

[2] = system: adult tail-tip fibroblasts (TTFs) from αMHC-GFP mice; assay: Human retroviral ORF cDNA library screen for AGHMT-mediated cardiac reprogramming (high-throughput imaging of αMHC-GFP and cTnT); type: cell-based, mouse; details: for cTnT Z-score / αMHC Z-score: individual cDNA expressed together with 5F (AGHMT), 9 days, Z-score ≥2 activator, ≤−2 inhibitor; for αMHC Z-score: αMHC-GFP; for 5F-mediated cardiac reprogramming (αMHC-GFP, cTnT immunocytochemistry): virus added to 5F (AGHMT), 9 days post-infection
Source text: Isolation of mouse tail-tip fibroblast. For isolation of adult mouse tail-tip fibroblasts, tails were cut from 8-12 weeks old adult wild-type or αMHC-GFP mouse and were minced into […] with razor blades after peeling off the superficial dermis. The minced tails were placed in fibroblast growth medium (DMEM supplemented with 10% FBS and 1% (vol/vol) penicillin/streptomycin). Tail-tip fibroblasts migrated out from the explants within 1 week and were passaged one time before use.
Construction of human retroviral ORFs library. Gateway-compatible Human ORFs pEntry vectors were purchased from Thermo Fisher Scientific. Gateway-compatible retroviral destination vector, pMXs-gw, was a gift from Shinya Yamanaka (Addgene plasmid #18656) (Takahashi, 2006). The inventors transferred each ORF individually into pMXs-gw by performing site-specific LR recombination using Gateway LR Clonase II Enzyme Mix kit (Thermo Fisher Scientific).
Retroviruses production, cellular reprogramming and treatment. For retroviruses production, Platinum E cells were seeded into culture dishes (1×10^5 cells/cm2) one day before transfection in DMEM supplemented with 10% FBS and 1% penicillin/streptomycin. Cells reached ˜80% confluency on the day of transfection. DNA plasmids were transfected into Platinum E cells using FuGENE 6 transfection reagent. Twenty-four hours after transfection, wild type or αMHC-GFP tail-tip fibroblasts were seeded into culture dishes or plates that were precoated with SureCoat (Cellutron) for one hour at a density of 6×10^4/cm^2. Forty-eight hours after transfection, polybrene was added to viral medium that was filtered through a 0.45-μm filter at a concentration of […]. The mixture replaced the growth medium in the cell culture plate with tail-tip fibroblasts. The viral infection was serially repeated twice. Twenty-four hours after the second infection, the viral medium was replaced with induction medium, composed of DMEM/199 (4:1), 10% conditioned medium obtained from neonatal rat cardiomyocyte culture, 10% FBS, 5% horse serum, 1% penicillin/streptomycin, 1% nonessential amino acids, 1% essential amino acids, 1% B-27, 1% insulin-selenium-transferrin, 1% vitamin mixture, and 1% sodium pyruvate (Invitrogen). Small molecule treatments were used throughout the reprogramming process […] (Sigma).
Immunocytochemistry. For immunocytochemistry, cells were fixed in 4% paraformaldehyde for 15 min and permeabilized with 0.1% Triton-X in room temperature. Cells were washed with PBS for three times followed by blocking with 10% goat serum for 1 hr. Cells then were incubated with mouse monoclonal anti-cardiac Troponin T (cTnT) antibody (Thermo Scientific) at 1:500 dilutions and rabbit anti-GFP antibody (Thermo Scientific) at 1:500 dilutions in 5% Goat serum for 1 hr. After washing with PBS three times, Cells then were incubated with donkey anti-mouse alexa fluor 647 (Invitrogen) at 1:500 and goat anti-rabbit Alexa fluor 488 at 1:500 (Invitrogen).
Identification of activators and inhibitors of cardiac reprogramming in adult fibroblasts. The inventors' previously optimized cardiac reprogramming protocol with five factors (AGHMT, also called 5F) was able to reprogram ˜3% efficiency of adult TTFs to iCMs as measured by activation of a cardiac-specific αMHC-GFP transgene and cardiac troponin T (cTnT) immunostaining (Zhou et al., 2015). To identify additional regulators of cardiac reprogramming, the inventors created a retroviral expression library consisting of 1,052 open reading frame (ORF) cDNAs representing 786 human transcription factor, cytokine, epigenetic regulator and nuclear receptor genes (Table 51). The inventors screened this expression library for activators and inhibitors of cardiac reprogramming by expressing individual cDNAs together with 5F in isolated TTFs from αMHC-GFP mice, as schematized in FIG. 1A. […]

[3] = target: GATA4 (expression plasmid, luciferase reporter assay) (human) (UniProt P43694); assay: cell-based or functional assay
[4] = target: T1, Flag-epitope tag ZNF281 fusion protein (human, UniProt Q9Y2X9 1-895); assay: co-immunoprecipitation from transfected HEK293 cells (anti-FLAG IP, anti-Myc blot)
T1 construct: Expressed in transfected HEK293 cells and tested in cell lysate; also called FLAG-tagged ZNF281; Flag-tagged ZNF281
T1 sequence: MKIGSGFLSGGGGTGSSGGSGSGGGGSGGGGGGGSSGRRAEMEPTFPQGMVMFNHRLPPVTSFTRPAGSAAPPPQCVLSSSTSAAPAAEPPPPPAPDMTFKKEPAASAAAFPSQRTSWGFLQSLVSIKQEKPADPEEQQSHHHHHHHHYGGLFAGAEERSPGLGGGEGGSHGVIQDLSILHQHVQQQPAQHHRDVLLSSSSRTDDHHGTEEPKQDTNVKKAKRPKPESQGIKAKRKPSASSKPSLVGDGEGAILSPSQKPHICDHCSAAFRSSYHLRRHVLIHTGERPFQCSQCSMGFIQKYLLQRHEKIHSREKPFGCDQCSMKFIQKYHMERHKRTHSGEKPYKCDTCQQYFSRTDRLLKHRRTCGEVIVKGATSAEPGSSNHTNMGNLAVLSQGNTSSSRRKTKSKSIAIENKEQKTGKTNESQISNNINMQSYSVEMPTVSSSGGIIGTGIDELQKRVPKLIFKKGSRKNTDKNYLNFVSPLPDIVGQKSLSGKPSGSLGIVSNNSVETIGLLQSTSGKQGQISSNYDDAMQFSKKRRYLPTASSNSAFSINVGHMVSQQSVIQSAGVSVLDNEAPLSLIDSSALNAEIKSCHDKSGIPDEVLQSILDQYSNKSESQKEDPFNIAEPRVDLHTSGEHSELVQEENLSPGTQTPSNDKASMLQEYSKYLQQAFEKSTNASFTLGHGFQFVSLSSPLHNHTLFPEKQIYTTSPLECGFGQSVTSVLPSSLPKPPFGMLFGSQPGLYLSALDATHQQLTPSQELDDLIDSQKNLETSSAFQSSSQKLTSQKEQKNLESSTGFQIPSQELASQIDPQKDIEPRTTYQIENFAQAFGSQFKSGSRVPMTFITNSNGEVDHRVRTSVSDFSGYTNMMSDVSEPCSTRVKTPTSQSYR
Method: FIGS. 6A-F. ZNF281 interacts with GATA4 to synergistically activate cardiac genes. (FIG. 6A) Co-immunoprecipitation assays were performed using HEK293 cells transfected with equal amounts of plasmid DNA encoding Myc-tagged GATA4, HAND2, MEF2c, or TBX5 and/or Flag-tagged ZNF281. IP, immunoprecipitation; IB, immunoblot. (FIG. 6B) Luciferase reporter assays were performed using HEK293 cells transfected with equal amounts of ZNF281 and/or GATA4 expression plasmids, as indicated, along with αMHC-luciferase reporter plasmid. (FIG. 6C) Heat maps showing ChIP-seq data for H3K27ac in adult mouse heart, and ZNF281 and GATA4 binding in reprogrammed TTFs at ±5 kB around the peak center. ChIP-seq experiments were performed using TTFs infected with 6F for 2 days. (FIG. 6D) ZNF281 binding motif enriched within ZNF281 binding peaks. (FIG. 6E) GATA4 binding motif enriched within GATA4 binding peaks. (FIG. 6F) Venn diagram showing the number of overlapping peaks between Heart H3K27ac, ZNF281 and GATA4. *P<0.05
Immunoprecipitation and Western Blot Analysis. Flag-epitope tag ZNF281 fusion protein were co-expressed with myc-epitope tag fusion GATA4, HAND2, MEF2C or TBX5 in HEK293 cells for 48 hours. […] The final elution and the input obtained before the immunoprecipitation was analyzed by SDS-PAGE western blot using a mouse monoclonal anti-Myc antibody (Novex) or mouse monoclonal anti-FLAG antibody (Sigma).

Sequence of GATA4 (expression plasmid, luciferase reporter assay) (human) (P43694 whole entry, the tested form may be a part): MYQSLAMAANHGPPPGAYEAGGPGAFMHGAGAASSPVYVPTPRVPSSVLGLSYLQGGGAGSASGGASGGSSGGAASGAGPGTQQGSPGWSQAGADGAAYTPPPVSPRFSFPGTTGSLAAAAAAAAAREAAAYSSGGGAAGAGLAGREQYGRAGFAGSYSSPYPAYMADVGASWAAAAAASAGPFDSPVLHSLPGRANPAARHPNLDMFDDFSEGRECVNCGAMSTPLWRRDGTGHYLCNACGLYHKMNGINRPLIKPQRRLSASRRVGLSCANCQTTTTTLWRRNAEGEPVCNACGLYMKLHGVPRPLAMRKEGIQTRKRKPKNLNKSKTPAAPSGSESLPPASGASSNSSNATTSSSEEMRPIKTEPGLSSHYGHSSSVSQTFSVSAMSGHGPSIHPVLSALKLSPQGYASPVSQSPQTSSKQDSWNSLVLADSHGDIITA

C[C@H](NC(=O)Cc1cc(F)cc(F)c1)C(=O)N[C@H](C(=O)OC(C)(C)C)c1ccccc1 [DAPT]
cardiac reprogramming (fibroblasts): enhance cardiac reprogramming

NC(=O)c1ccc(-c2nc(-c3ccc4c(c3)OCO4)c(-c3ccccn3)[nH]2)cc1 [SB431542]
cardiac reprogramming (fibroblasts): enhance cardiac reprogramming

COc1ccc2cc(CCC(C)=O)ccc2c1 [nabumetone]
cardiac reprogramming efficiency [1]: greatly enhanced
expression of inflammatory markers (IL6, Ccl2, and Ptgs1) (5F-reprogrammed TTFs): decreased

Achaete-scute homolog 1 [ASCL1]
cTnT Z-score [2]: 3.9
αMHC Z-score [2]: 0.0
5F-mediated cardiac reprogramming (αMHC-GFP, cTnT immunocytochemistry) [2]: greatly enhanced reprogramming

BMP2
cTnT Z-score [2]: 0.5
αMHC Z-score [2]: −3.2

PHD finger protein 7 [PHF7]
cTnT Z-score [2]: 9.7
αMHC Z-score [2]: 7.4
5F-mediated cardiac reprogramming (αMHC-GFP, cTnT immunocytochemistry) [2]: enhanced reprogramming

ZNF281 (expression plasmid, luciferase reporter assay) (from UniProt Q9Y2X9 1-895)
αMHC-Luciferase reporter activation [3]: 15 fold

forkhead box protein A3 [FOXA3]
cTnT Z-score [2]: −3.1
αMHC Z-score [2]: −4.3
5F-mediated cardiac reprogramming (αMHC-GFP, cTnT immunocytochemistry) [2]: practically abolished

B1: myc-epitope tag fusion TBX5 (other, not shown: small tags and cut ends)
chain: MADADEGFGLAHTPLEPDAKDLPCDSKPESALGAPSKSPSSPQAAFTQQGMEGIKVFLHERELWLKFHEVGTEMIITKAGRRMFPSYKVKVTGLNPKTKYILLMDIVPADDHRYKFADNKWSVTGKAEPAMPGRLYVHPDSPATGAHWMRQLVSFQKLKLTNNHLDPFGHIILNSMHKYQPRLHIVKADENNGFGSKNTAFCTHVFPETAFIAVTSYQNHKITQLKIENNPFAKGFRGSDDMELHRMSRMQSKEYPVVPRSTVRQKVASNHSPFSSESRALSTSSNLGSQYQCENGVSGPSQDLLPPPNPYPLPQEHSQIYHCTKRKEEECSTTDHPYKKPYMETSPSEEDSFYRSSYPQQQGLGASYRTESAQRQACMYASSAPPSEPVPSLEDISCNTWPSMPSYSSCTVTTVQPMDRLPYQHFSAHFTSGPLVPRLAGMANHGSPQLGEGMFQHQTSVAHQPVVRQCGPQTGLQSPGTLQPPEFLYSHGVPRTLSPHQYHSVHGVGMVPEWSDNS
notes: Expressed in transfected HEK293 cells; The tag's position is unknown; also called Myc-tagged TBX5; T-box transcription factor TBX5
binding result [4]: no binding

B2: myc-epitope tag fusion HAND2 (other, not shown: small tags and cut ends)
chain: MSLVGGFPHHPVVHHEGYPFAAAAAAAAAAAASRCSHEENPYFHGWLIGHPEMSPPDYSMALSYSPEYASGAAGLDHSHYGGVPPGAGPPGLGGPRPVKRRGTANRKERRRTQSINSAFAELRECIPNVPADTKLSKIKTLRLATSYIAYLMDLLAKDDQNGEAEAFKAEIKKTDVKEEKRKKELNEILKSTVSSNDKKTKGRTGWPQHVWALELKQ
notes: Expressed in transfected HEK293 cells; The tag's position is unknown; also called Myc-tagged HAND2; Heart- and neural crest derivatives-expressed protein 2
binding result [4]: no binding
